According to patent US20260191815A1, “THIOACRYLAMIDE DERIVATIVES FOR USE IN THE PREVENTION OR TREATMENT OF LIVER FIBROSIS” (CMR CUREDIAB METABOLIC RESEARCH GMBH, priority 2022, published 2026):

Key:
[1] = test system: CCl4-intoxicated C57BL/6J mice; experiment: CCl4-induced liver fibrosis in mice, oral gavage once daily for 2 weeks; format: in vivo, mouse
Method: C57BL/6J mice were housed in housing cages GM500 (500 cm^3) throughout the experimental phase. Animals' cages litters were changed at least once a week. They were housed in groups of 4 animals on a normal 12-hour light cycle (at 07:30 pm lights off), 22±2° C. and 55±10% relative humidity. Animals were acclimated for 5 days. During the whole phase standard diet (SAFE, Ref.: U8400G10R) and tap water were provided ad libitum.
After the acclimation period, mice were intoxicated with CCl4 i.p. twice weekly for 2 weeks to induce liver fibrosis. Body weight was recorded twice weekly for the 2-week intoxication period. After 2 weeks of CCl4 injection (~72 hours after the 4th injection of CCl4), mice were weighted and bled at ~08:00 am to collect blood (150 μL blood on heparin by retro-orbital bleeding under isoflurane anaesthesia) and measure plasma ALT and AST levels. Mice were then randomized into 2 homogenous groups (n=10/group) based on 1) ALT, 2) AST and 3) body weight.
Mice were treated by oral gavage once daily with vehicle or HK3 for 2 weeks (from day 0 to day 13). During this 2-week treatment period, CCl4 twice weekly i.p. injection was still performed until the end of the in-life phase. Body weight was recorded twice weekly, during the 2-week treatment period.
At the end of the treatment period (~48 hours after the last injection of CCl4), all mice were weighed and 3 h-fasted at ~10:00 am. The last dose of vehicle and test compound was administered at ~10:00 am, prior to blood collection (retro-orbital bleeding under isoflurane anesthesia for maximal volume/heparin) at ~1:00 pm. Plasma was isolated and immediately stored at −80° C.
Subsequently, the liver of each mouse was collected and weighted. Liver samples were dissected from the left lateral lobe for formalin-fixed paraffin-embedded samples for shipment for histology analysis (H&E and Sirius Red staining), % Sirius Red labelling and NAS scoring.
A total of 50 slides, each having a single hepatic lobe section stained with H&E (25) and Sirius red (25) were digitized using a Nanozoomer from Hamamatsu at Sciempath laboratory and posted on a secured digital slide server. They were downloaded and visualized using NDP viewer. Sections were evaluated with knowledge of groups but without knowledge of treatment. Each section was evaluated and individually scored.
A NAFLD scoring system (NAS), with which a total of four variables was qualitatively assessed and ranked with a score: (1) hepatocellular steatosis, (2) liver inflammation, (3) lobular fibrosis, and (4) hepatocyte ballooning.
An individual mouse NAS total score was calculated for each animal by summing up the score for (1) hepatocellular steatosis, (2) liver inflammation, (3) lobular fibrosis, and (4) hepatocyte ballooning. Whole-section histomorphometric measurements of positive area for Sirius Red were performed using computer-assisted image analysis on digitized sections. The histomorphometric measurements were generated with the software from Visiopharm (Denmark) using an automated approach. Analysis was performed on virtual whole sections at 20× magnification for morphometric evaluation. The pixel value at 20× magnification corresponded to 0.46 μm/pixel.
An algorithm was prepared for Sirius Red (SR) morphometric measurement on liver-stained sections. The algorithm was generated with the Bayesian linear segmentation tool in the software package, which was further refined through training on a subset of sections from 5 animals. Major histology section artefacts, as well as, large vascular empty spaces were automatically dissected and removed from area of interest (AOI) or detected positive area. Also, positive collagen from capsule and large vessels media layer was automatically excluded from SR positive area.
The total area analysed or AOI (mm2), the total SR positive area (mm2) and the percent “SR” area/total liver area analysed (%) were determined. […]

[2] = test system: IL-8 secretion in 3D PHH:NPC spheroids; experiment: IL-8 secretion (Luminex) by 3D PHH:NPC NASH spheroids; format: cell-based, human; settings: across 1-10 μM, NASH medium
Method: Experiments were conducted using HepaPredict's (HepaPredict AB, Sweden) 3D primary human hepatocyte (PHH) spheroid NASH model (e.g. as published in Bell et al. Sci Rep. 2016 May 4; 6:25187. doi: 10.1038/srep25187).
Cryopreserved primary human hepatocytes were obtained from BioIVT (USA) and nonparenchymal cells (NPC) from LifeNetHealth (USA). After thawing, PHH-NPC cocultures were seeded in a multi-well 96-well Elplasia plate (Corning) in William's E medium containing 11 mM glucose, 10 μg/mL (control) or 10 mg/mL insulin (NASH), 100 nM dexamethasone, 5.5 mg/L transferrin, 6.7 μg/L selenite, 2 mM L-glutamine, 1 U/mL penicillin, 0.1 mg/mL streptomycin, and 10% fetal bovine serum (FBS). […]
After spheroid formation, cells were exposed to up to five different concentrations of the candidate molecules HK1 or HK3 (0.1 μM, 0.3 μM, 1 μM, 3 μM, and 10 μM) with or without FFA in the culture medium. […] All endpoints were evaluated after 14 days of exposure. […]
Secreted cytokines (IL-6 and IL-8) were measured in culture supernatants using a customized Magnetic Luminex Performance Assay (Human Cytokine Panel A, R&D Systems). […] The fluorescence intensity was measured using a Bio-Plex 200 system (Bio-Rad), the median fluorescence intensity of each analyte was analyzed with the Bio-Plex Manage software (version 6.2) using a 5-parameter regression algorithm. […]

[3] = CCl4 mice, oral gavage once daily, 2 weeks

Q: How did the “percentage of Sirius Red labelling compared to baseline group” value ([1]; CCl4 mice, liver sections, p<0.01) turn out when `Cc1cc(NC(=S)/C(C#N)=C(\O)C2CC2)ccc1[N+](=O)[O-]` [HK3, 2-Cyano-3-cyclopropyl-3-hydroxy-N-(3-methyl-4-nitro-phenyl)-thioacrylamide] was run?
A: significantly increased

Q: And the “percentage of Sirius Red labelling compared to the vehicle group” value ([1]; CCl4 mice, liver sections, p<0.05)?
A: significantly reduced

Q: What about the “number of mice with a fibrosis score equal to 2” value ([1]; CCl4 mice, n=10/group) of the same compound?
A: 9 mice

Q: And the “number of mice with a fibrosis score equal to 3” value ([1]; CCl4 mice, n=10/group)?
A: 1 mouse

Q: And the “body weight and body weight gain compared to vehicle treatment” value [1, 3]?
A: not altered

Q: What about the “liver weight and relative liver weight compared to vehicle treatment” value [1, 3] of the same compound?
A: did not change

Q: What about the “plasma ALT and AST levels compared to vehicle treatment” value [1, 3] of the same compound?
A: did not change

Q: What about the “fibrosis score, treated group versus vehicle-treated group” value ([1]; CCl4 mice, p<0.05) of the same compound?
A: significant difference

Q: What about the “fibrosis score, treated group versus baseline group” value ([1]; CCl4 mice, baseline = CCl4 for two weeks only) of the same compound?
A: no significant difference

Q: What about the “TNF-α levels in liver homogenates compared to CCl4-treated group” value ([1]; combined administration with CCl4, p<0.05) of the same compound?
A: slight but significant downregulation

Q: What about the “IL-8 levels compared to NASH” value [2] of the same compound?
A: 80-91%
